Assays:
Experiment in all cases: DSF 100 kinase selectivity screen;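 further: compound tested at 20 µM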
Format in all cases: binding
[1] = target: T1, ~100 representative kinases (Homo sapiens, UniProt P11362); details: protein FGFR1; average of three replicates
T1 construct: Recombinant protein kinase domains with a concentration of 2 μM
Method in brief: (§1)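 Each kinase domain, at 2 μM, is mixed with 20 μM test compound and SYPRO Orange in Hepes (20 mM, pH 7.5) with 500 mM NaCl. Temperature is then raised at 3°C/min and fluorescence-monitored unfolding yields the melting temperature change, ΔTm in degrees Celsius.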

[2] = target: T2, ~100 representative kinases (Homo sapiens, UniProt Q99683); details: protein MAP3K5; average of three replicates
T2 construct: Recombinant protein kinase domains with a concentration of 2 μM
T2 sequence (Q99683 1-1374): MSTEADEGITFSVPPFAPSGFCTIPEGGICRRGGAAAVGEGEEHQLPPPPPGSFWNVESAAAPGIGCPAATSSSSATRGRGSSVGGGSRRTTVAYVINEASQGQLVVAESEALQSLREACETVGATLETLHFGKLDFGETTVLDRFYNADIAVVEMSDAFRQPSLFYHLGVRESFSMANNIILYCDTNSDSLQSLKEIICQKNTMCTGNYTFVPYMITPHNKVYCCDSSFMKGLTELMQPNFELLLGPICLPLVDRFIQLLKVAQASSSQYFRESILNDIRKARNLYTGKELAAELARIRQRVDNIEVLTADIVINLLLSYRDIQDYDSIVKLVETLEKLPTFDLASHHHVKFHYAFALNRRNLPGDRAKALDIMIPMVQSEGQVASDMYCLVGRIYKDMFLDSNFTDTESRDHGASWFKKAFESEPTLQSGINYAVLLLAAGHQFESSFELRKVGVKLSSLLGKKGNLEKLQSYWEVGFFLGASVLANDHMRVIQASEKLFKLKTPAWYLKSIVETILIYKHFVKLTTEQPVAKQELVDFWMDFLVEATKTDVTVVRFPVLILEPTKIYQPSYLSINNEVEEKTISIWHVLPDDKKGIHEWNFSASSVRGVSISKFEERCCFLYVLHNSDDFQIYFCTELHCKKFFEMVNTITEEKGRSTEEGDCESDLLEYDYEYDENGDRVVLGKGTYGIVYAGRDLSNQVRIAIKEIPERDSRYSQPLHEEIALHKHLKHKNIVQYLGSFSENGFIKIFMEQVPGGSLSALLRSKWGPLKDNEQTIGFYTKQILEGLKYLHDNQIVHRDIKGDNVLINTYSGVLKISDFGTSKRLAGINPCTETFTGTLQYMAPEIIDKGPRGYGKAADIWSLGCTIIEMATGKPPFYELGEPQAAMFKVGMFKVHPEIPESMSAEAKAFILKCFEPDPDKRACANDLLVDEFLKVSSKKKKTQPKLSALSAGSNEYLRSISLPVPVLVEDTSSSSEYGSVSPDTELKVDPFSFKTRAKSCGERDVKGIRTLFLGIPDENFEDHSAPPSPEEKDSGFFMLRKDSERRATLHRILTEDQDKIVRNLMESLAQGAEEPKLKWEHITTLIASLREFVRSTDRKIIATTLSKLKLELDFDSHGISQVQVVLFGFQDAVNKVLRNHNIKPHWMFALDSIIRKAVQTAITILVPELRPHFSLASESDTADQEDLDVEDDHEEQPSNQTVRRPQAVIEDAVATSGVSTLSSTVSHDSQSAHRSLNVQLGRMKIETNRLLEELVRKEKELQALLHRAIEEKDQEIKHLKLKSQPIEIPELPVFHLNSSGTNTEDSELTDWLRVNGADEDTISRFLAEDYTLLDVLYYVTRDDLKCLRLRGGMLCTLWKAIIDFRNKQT
Method in brief: as §1

[3] = target: T3, ~100 representative kinases (Homo sapiens, UniProt P54753); details: Protein EPHB3A; average of three replicates
T3 construct: Recombinant protein kinase domains with a concentration of 2 μM
T3 sequence (P54753 34-998): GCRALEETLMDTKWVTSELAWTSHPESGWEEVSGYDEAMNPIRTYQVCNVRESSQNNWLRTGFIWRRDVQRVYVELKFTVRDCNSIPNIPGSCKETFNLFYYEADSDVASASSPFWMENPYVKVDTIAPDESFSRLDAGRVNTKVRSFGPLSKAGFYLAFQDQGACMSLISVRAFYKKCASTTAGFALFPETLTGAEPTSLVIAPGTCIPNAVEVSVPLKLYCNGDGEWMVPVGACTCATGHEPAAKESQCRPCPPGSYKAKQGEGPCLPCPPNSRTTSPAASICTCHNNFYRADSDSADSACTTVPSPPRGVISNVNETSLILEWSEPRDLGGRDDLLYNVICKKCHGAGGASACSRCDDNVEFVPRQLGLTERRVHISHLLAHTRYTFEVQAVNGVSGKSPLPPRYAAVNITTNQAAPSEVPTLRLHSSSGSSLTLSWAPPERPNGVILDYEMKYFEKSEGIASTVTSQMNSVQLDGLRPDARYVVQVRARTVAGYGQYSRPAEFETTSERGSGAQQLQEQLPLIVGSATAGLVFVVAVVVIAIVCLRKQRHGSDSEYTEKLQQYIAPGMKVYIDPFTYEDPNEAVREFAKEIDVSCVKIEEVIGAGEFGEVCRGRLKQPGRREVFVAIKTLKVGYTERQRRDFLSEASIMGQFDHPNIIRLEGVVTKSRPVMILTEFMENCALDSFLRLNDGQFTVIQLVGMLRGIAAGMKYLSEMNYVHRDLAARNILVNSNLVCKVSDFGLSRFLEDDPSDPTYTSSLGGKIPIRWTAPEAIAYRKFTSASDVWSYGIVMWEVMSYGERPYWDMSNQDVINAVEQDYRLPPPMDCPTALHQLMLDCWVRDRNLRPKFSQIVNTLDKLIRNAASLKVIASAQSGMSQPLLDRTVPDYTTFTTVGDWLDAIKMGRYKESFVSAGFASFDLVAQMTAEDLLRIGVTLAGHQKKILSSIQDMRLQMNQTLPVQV
Method in brief: as §1

T1 sequence (P11362 22-822): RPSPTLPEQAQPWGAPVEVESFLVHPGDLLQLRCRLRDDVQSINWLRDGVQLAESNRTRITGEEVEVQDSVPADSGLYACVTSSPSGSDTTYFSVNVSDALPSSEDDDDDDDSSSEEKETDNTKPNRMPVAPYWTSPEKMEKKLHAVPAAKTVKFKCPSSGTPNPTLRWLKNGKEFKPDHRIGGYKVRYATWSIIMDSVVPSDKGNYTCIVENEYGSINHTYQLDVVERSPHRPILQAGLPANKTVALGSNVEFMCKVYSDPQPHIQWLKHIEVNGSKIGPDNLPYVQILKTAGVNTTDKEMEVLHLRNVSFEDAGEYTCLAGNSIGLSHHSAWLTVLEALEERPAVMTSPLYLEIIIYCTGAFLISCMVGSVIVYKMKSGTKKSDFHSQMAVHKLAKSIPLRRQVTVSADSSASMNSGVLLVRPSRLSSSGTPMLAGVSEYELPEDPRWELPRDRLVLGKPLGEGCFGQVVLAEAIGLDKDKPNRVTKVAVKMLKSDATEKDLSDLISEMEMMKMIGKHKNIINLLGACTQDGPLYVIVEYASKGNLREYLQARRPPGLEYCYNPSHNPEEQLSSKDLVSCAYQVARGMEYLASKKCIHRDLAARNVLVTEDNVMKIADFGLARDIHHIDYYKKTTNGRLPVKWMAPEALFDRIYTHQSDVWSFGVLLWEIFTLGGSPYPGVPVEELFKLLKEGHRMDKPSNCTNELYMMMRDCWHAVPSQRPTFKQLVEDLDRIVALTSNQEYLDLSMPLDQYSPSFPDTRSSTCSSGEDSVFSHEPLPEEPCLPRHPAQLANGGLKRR

SMILES | dTm [1] [K] | dTm [2] [K] | dTm [3] [K]
COc1cc(S(C)(=O)=O)ccc1Nc1nc(N(C)C)c2c(Cl)c[nH]c2n1 [Compound 37] | 0.09 | 1.09 | -1.89
COc1cc2c(Oc3ccc(NC(=O)C4(C(=O)Nc5ccc(F)cc5)CC4)cc3F)ccnc2cc1OCCCN1CCOCC1 [Foretinib, reference compound] | 5.33 | 2.33 | 13.52
CCNc1nc(Nc2cc(F)c(C(=O)N3CCOCC3)cc2OC)ncc1C(F)(F)F [GNE-7915] | 0.25 | 3.14 | 0.08
Cc1ccc(C(=O)Nc2ccc(CN3CCN(C)CC3)c(C(F)(F)F)c2)cc1C#Cc1cnc2[nH]ncc2c1 [GZD-824, reference compound] | 12.20 | 5.05 | 15.76
C[C@@H]1CN(c2cc(-c3n[nH]c4ccc(OC5(C)CC5)cc34)ncn2)C[C@H](C)O1 [MLi2] | -0.19 | 3.65 | 0.06
Cn1cc(-c2c[nH]c3ncnc(N4CCOCC4)c23)cc1C#N [PFE-360] | 0.13 | 15.45 | 0.07
CNC(=O)c1cc(Oc2ccc(NC(=O)Nc3cc(C(C)(C)C)nn3-c3ccc4ncccc4c3)c(F)c2)ccn1 [Rebastinib, reference compound] | 5.75 | 1.38 | -2.84

Reference: article PMC12136037, “Type II kinase inhibitors that target Parkinson’s disease–associated LRRK2” (Science Advances, 2025)
